Test results from patent US20050246797A1, “Gene participating in the synthesis of brassinosteroid” (priority 2002, published 2005).
Like-named read-outs stand apart in the source and are kept apart here.

What was measured:
[1] = Concentrations of brassinosteroids in Arabidopsis strains by HPLC and GC-MS
Experimental: The concentrations of brassinosteroids were determined in wild strains (Ws-2), the strain of reference example 1 (rot3-1 and rot3-5, suppressed function of ROT3) and the strain of reference example 3 (rot3/CYP90D1, suppressed function of ROT3 and CYP90D1) of Arabidoposis. The concentration was determined by harvesting the ground part of the plants at the time of rosette formation by reaping, by freezing and drying, and by detecting using HPLC and GC-MS.

[2] = system: strains of suppressed function of both ROT3 and CYP90D1; experiment: Treatment of plants/leaves of the ROT3- and CYP90D1-suppressed strain with brassinosteroid intermediates or brassinolide (leaf morphology, FIG. 3); assay type: in vivo, Arabidopsis; conditions: aqueous solution 0.1 μM, submersion with gentle shaking
Experimental: The strain with suppressed function of both ROT3 and CYP90D1 prepared in reference example 2 was cultured from seeds in sterilized conditions. The seeds of the above-described strain were seeded on the MS medium (solidified by 0.2% Gelrite) supplemented with 2% (w/v) sucrose and were conventionally cultured at 23° C. under continuous illumination after seeding under sterilized conditions.
The above-described plants (strains of suppressed function of both ROT3 and CYP90D1) were cultured in the above-described aqueous solution at the level of submersion under the solution with gently shaking. In the case of the treatment of leaves with the above-described intermediates or brassionolide, leafstalks were cut out by a surgical knife after taking out the plants under sterilized conditions and were treated in the same way. […] Namely, ROT3 and CYP90D1 are cooperatively involved in the synthesis of brassinolide, the final product of the biosynthetic pathway of brassinosteriods.

[3] = rot3/CYP90D1 (suppressed function of ROT3 and CYP90D1), ground part of plants at rosette formation

amount in the strain with suppressed function of both ROT3 and CYP90D1 ([1]; rot3/CYP90D1, in words)	SMILES	concentration of brassinosteroid, rot3/CYP90D1 [1, 3]	concentration of brassinosteroid, rot3/CYP90D1 [1] [ng/g]	effect on leaf size/morphology of plants without the function of ROT3 and CYP90D1 [2]
–	CC(C)[C@H](C)[C@@H](O)[C@H](O)[C@@H](C)[C@H]1CC[C@H]2[C@@H]3CC[C@H]4C[C@H](O)CC[C@]4(C)[C@H]3CC[C@]12C [3-Deoxotyphasterol]	0.38 ng/g	–	–
–	CC(C)[C@H](C)[C@@H](O)[C@H](O)[C@@H](C)[C@H]1CC[C@H]2[C@@H]3CC[C@H]4C[C@H](O)[C@H](O)C[C@]4(C)[C@H]3CC[C@]12C [6-Deoxocastasterone]	–	0.034	–
–	CC(C)[C@H](C)[C@@H](O)[C@H](O)[C@@H](C)[C@H]1CC[C@H]2[C@@H]3CC[C@H]4C[C@@H](O)CC[C@]4(C)[C@H]3CC[C@]12C [6-Deoxoteasterone]	0.26 ng/g	–	–
extremely decreased	CC(C)[C@H](C)[C@@H](O)[C@H](O)[C@@H](C)C1CCC2C3OC(=O)[C@H]4C[C@H](O)[C@H](O)C[C@]4(C)C3CC[C@@]21C (stereo partly shown) [Brassinolide]	— (— in the table shows that the value is less than the limit of detection (0.001 ng/g))	–	induced large size of leaves
–	CC(C)[C@H](C)[C@@H](O)[C@H](O)[C@@H](C)[C@H]1CC[C@H]2[C@@H]3CC(=O)[C@H]4C[C@H](O)[C@H](O)C[C@]4(C)[C@H]3CC[C@]12C [Castasterone]	0.020 ng/g	–	–
